# Assay: Conversion of the crystal form when suspended and stirred in solvent
# Type: physicochemical
# Details: room temperature, seven days
# From the text: The anhydrate crystal form (Form D) can be converted to other crystal forms under suitable conditions.
structure (smiles),measurement,setting,value
"C=Cc1cc(O)cc2nc(-c3ccc(O)c(F)c3)oc12 [Form D, 2-(3-fluoro-4-hydroxyphenyl)-7-vinyl-1,3-benzoxazol-5-ol]",crystal form conversion after suspension and stirring,in acetone,another anhydrate crystal form is obtained
same,crystal form conversion after suspension and stirring,in ethanol,another anhydrate crystal form is obtained
same,crystal form conversion after suspension and stirring,in methanol,another anhydrate crystal form is obtained
same,crystal form conversion after suspension and stirring,in water,most of the anhydrate crystal form is converted to a hydrate crystal form

# Reference: patent US20080132554A1, “CRYSTAL FORM OF 2-(3-FLUORO-4-HYDROXYPHENYL)-7-VINYL-1,3-BENZOXAZOL-5-OL” (WYETH, priority 2006, published 2008)
